Measurements as given in US7169781B2, “Imidazole derivatives and their use as pharmaceutical agents” (Hoffmann-La Roche Inc., priority 2003, dated 2007).

Tests used:
[1] = biological target: T1, Src (p60^c-src) (Homo sapiens, UniProt P12931); experiment: SRC-Inhibitor-Assay (time-resolved fluorescence kinase assay); type: biochemical; settings: ATP 5 μM; enzyme pre-incubated with inhibitor 15 min at 15° C.
T1 construct: purchased Upstate (UBI)
Method: SRC-Inhibitor-Assay Parameters:
Assay buffer: 4 mM MgCl2 • 2 mM TCEP • 50 mM HEPES • 0.1% Tween 20 • pH 7.3
Inhibitor: max. 25 μM • min. 0.42 nM Material:
Eu-labelled phosphotyrosine antibody:—for Lck Cisbio Mab PT66-K, • for Src EG&G Wallac PT66 Eu-W1024 (all commercially available).
Peptides: Ro: NH2-A-E-E-E-I-Y-G-E-F-E-A-K-K-K-K-CONH2 (SEQ ID NO: 1), and Ja133-Ro: Ja133-G-Aminocaprylic acid-A-E-E-E-I-Y-G-E-F-E-A-K-K-K-K-CONH2 (SEQ ID NO: 2) wherein Ja133 is LightCycler-Red 640-N-hydroxy succinimide ester; whereby both peptides were synthesized by an optimized solid phase peptide synthesis protocol (Merrifield, Fed. Proc. Fed. Amer. Soc. Exp. Biol. 21 (1962) 412) on a Zinsser SMP350 peptide synthesizer. Shortly, the peptide was assembled on 160 mg (22.8 μmol scale) of a Rink-Linker modified polystyrene solid phase by repeatedly conjugating an twenty fold excess of aminoacids each protected by temporary piperidine labile Fmoc- and permanent acid labile tert-Bu-, BOC- and Otert-Bu-groups depending on the side chain function. The substrate sequence AEEEIYGEFEAKKKK (SEQ ID NO: 1) was N-terminal additionally mounted with the spacer amino acids Aminocaprylic acid and Glycin. After cleavage of the N-terminal temporary protecting group the still attached and protected peptide was labeled with a 1.5 fold amount of LightCycler-Red 640-N-hydroxy succinimide ester (purchased by Roche Diagnostics GmbH) and triethylamine. After 3 hrs. the resin was washed with Dimethylformamide and Isopropanol until the eluates of the blue resin got colourless. […] The substrate was finally isolated by a preparative reverse phase HPLC purification. The purification yielded 12.2 mg RP-HPLC single peak pure blue material (lyophilisate). The identity was proven by MALDI mass spectroscopy [2720.0].
Enzymes: Upstate Lck (p56^lck, active), Upstate Src (p60^c-src, partially purified) were purchased from UBI.
Time-resolved Fluorescence Assay: Reader: Perkin Elmer, Wallac Viktor 1420-040 multilabel counter; Liquid handling system: Beckman Coulter, Biomek 2000.
ATP, Tween 20, HEPES were purchased from Roche Molecular Biochemicals, MgCl2 and MnCl2 were purchased from Merck Eurolab, TCEP was purchased from Pierce, 384 Well low volume fluorescence plates was purchased from Falcon.
At first the enzyme is pre-incubated for 15 min. at 15° C. in aqueous solution with corresponding amounts of inhibitors according to this invention. Then the phosphorylation reaction is started by adding a reaction mixture, containing ATP, Peptide and PT66, and subsequent shaking. The proceeding of this reaction is immediately monitored using time resolved fluorescence spectroscopy in a suitable well plate reader.
The IC50-values can be obtained from the reaction rates by using a non-linear curve fit (Excelfit).

[2] = biological target: T2, c-met (Homo sapiens, UniProt P08581); experiment: C-met-Inhibitor-Assay (ELISA type assay measuring phosphorylation of c-met from HT29 cell lysate); type: biochemical; settings: ATP final conc. 40 μM, 60 min at room temperature
T2 construct: Cell lysate of human colon adenocarcinoma HT29 known for its high content of c-met; endogenous in cells; host or cells: HT29 (ATCC HTB-38), human colon adenocarcinoma
Excerpt: C-met-Inhibitor-Assay: Assay Principle
C-met is a typical tyrosine kinase which is involved in metastasis, proliferation/apoptosis and angiogenesis of tumors. The assay is an ELISA type assay measuring the phosphorylation of c-met using a phospho-tyrosine specific antibody.
Cell lysate of human colon adenocarcinoma HT29 known for its high content of c-met is bound to the wells of a microtiterplate (MTP) via an anti-hHGF receptor antibody (anti-hHGFR). ATP-phosphorylation of c-met is detected in presence or absence of the test compounds by using a phospho-tyrosine mouse IgG and a POD labeled goat anti-mouse IgG detection system. Using the classical POD substrate TMB, an absorption at 450 nm/620 nm is used to calculate enzymatic activity.
Plates: 96-well polystyrene plates (NUNC) streptavidin-coated microtiter plates Cell line/Lysate: HT29 (ATCC HTB-38), human colon adenocarcinoma (confluence: 2.5×10^5 cells/cm^2) are washed with PBS and incubated with Lysis buffer for 10 min on ice. Supernatent is collected and diluted with TBS. Lysate is shockfrozen in liquid nitrogen and stored at −80° C.)
Reagents (all working solutions are kept at 4° C., unless stated otherwise): • anti-hHGFR detection stock solution: 50 μg/ml (R&D Systems, Cat.No. BAF 358) antibody final conc.: 1 μg/ml • p-Tyr (PY99) mouse stock solution: 200 μg/ml (Santa Cruz Biotechnology, monoclonal IgG2b Cat.No. SC-7020) final conc.: 0.2 μg/ml • goat-anti-mouse IgG: 2 ml (BIO RAD, Cat.No. 170-6516) • (H+L)-HRP Conjugate; final conc.: 1:2000 • Blocking Reagent: Roche Diagnostics GmbH, Cat.No.1112589 for ELISA diluted 1:10 in TBS • ATP: Adenosine-5′-triphosphate, stock solution 10 mM, stock solution 10 mM (Roche • Diagnostics GmbH, Cat.No. 127531) final conc.: 40 μM • TBS: Tris-buffered saline, 50 mM TRIS pH 7.5 (Roche Diagnostics GmbH, Cat.No. 708976), 150 mM NaCl (SIGMA, Cat.No. S-3014) • Wash buffer TBS-T: Tris-buffered saline, 50 mM TRIS pH 7.5 150 mM NaCl, containing 0.5% Tween20 • Kinase buffer: Tris-buffered saline, 50 mM TRIS pH 7.5, 100 mM NaCl, 60 mM MgCl2 (SIGMA Chemical Company, Cat.No. M-1028) • Lysis buffer: 50 mM TRIS pH 7.5 containing 1% Nonidet P40 (Roche Diagnostics GmbH, Cat.No.1754599) 0.5% Deoxycholic acid (SIGMA Chemical Company, Cat.No. D-6750) • final conc.: 1 mM 1 mM PMSF stock solution 70 mM (Roche Diagnostics GmbH, • Cat.No.837091 40 μl/ml Complete (Roche Diagnostics GmbH, Cat.No. 1836145) Final conc.: 40 μl/ml • TMB: Tetramethylbenzidine (Intergen Company, Cat.No. 91000) • Samples: 10 mM in DMSO (stored at −20° C.), thawed at room temperature
Procedure: • Add 50 μl of anti-hHGFR detection antibody in blocking reagent to assay plate (final conc. 1 μg/ml), incubate assay plate for 60 min at room temperature on an MTP shaker. • Remove anti-hHGFR detection antibody solution from assay plate. • Add 250 μl blocking reagent per well to assay plate, incubate assay plate for 20 h, at 4° C. • Remove blocking reagent from assay plate. • Add 50 μl of HT29 lysate, incubate assay plate for 180 min, at 4° C. on an MTP shaker. • Wash assay plate with 2×200 μl TBS buffer per well. • Add 40 μl of 0.2% DMSO in kinase buffer to assay plate. • Add 40 μl sample solution (dissolved in kinase buffer—final conc. 22.5 μM). • Dissolve samples (1:3 ratio) in MTP. • Add 10 μl ATP dissolved in kinase buffer (200 μM) to samples (final conc. 40 μM ATP). Positive control: add 40 μl kinase buffer plus 10 μl 200 μM ATP. Negative control: add 40 μl kinase buffer plus 10 μl kinase buffer without ATP. […]

T1 sequence (P12931 whole entry): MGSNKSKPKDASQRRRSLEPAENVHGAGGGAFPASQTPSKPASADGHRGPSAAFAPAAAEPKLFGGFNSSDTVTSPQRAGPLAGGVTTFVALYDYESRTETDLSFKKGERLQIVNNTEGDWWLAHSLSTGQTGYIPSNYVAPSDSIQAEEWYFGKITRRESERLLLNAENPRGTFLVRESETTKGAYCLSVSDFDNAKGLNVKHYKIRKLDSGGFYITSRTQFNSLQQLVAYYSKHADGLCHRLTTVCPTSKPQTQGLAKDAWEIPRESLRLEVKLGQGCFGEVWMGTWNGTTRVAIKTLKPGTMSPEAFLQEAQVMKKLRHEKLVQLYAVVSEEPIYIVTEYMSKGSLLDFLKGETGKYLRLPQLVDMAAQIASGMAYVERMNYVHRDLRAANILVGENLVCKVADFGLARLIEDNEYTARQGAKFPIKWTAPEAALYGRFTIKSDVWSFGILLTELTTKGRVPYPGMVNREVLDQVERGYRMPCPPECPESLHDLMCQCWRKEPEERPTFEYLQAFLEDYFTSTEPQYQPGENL
T2 sequence (P08581 25-1390): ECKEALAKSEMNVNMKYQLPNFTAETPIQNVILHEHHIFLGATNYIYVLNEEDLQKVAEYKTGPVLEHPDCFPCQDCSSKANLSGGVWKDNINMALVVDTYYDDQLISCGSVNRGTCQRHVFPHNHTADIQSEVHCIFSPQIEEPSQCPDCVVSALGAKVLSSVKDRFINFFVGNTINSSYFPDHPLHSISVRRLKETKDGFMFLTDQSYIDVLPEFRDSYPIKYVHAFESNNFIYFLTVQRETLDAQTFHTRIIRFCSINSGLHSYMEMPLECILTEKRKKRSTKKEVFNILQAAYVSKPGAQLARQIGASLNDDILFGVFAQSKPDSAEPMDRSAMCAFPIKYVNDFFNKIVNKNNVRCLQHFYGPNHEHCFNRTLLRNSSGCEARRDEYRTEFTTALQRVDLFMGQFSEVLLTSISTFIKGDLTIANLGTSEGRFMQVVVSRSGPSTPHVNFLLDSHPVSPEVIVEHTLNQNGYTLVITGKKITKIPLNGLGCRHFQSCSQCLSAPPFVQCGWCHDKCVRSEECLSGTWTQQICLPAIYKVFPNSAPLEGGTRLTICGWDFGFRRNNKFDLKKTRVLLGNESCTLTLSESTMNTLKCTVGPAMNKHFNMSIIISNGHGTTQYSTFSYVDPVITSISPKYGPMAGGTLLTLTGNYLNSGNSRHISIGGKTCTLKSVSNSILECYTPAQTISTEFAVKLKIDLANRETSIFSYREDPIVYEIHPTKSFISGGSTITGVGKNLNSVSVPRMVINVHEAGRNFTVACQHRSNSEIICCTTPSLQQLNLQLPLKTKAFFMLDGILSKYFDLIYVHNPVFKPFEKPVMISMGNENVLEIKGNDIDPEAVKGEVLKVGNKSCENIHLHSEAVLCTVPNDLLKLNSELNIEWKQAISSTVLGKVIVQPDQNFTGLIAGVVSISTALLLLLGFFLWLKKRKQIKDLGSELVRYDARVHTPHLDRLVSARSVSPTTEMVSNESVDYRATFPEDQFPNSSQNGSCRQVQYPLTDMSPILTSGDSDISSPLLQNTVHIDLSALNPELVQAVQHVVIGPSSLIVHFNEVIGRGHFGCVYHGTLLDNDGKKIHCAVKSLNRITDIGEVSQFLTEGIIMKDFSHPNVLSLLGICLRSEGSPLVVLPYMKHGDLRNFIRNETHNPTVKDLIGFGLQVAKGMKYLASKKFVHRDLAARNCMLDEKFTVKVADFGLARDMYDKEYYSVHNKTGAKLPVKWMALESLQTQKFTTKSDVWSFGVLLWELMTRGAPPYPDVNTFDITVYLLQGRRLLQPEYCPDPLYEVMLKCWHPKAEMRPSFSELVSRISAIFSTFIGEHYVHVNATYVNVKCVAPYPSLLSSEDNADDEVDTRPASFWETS

SMILES | IC50 [1] [nM] | IC50 [2] [nM]
O=S(=O)(NCCO)c1ccc(Nc2nccc(-c3[nH]c(-c4c(Cl)cc(OCCO)cc4Cl)nc3-c3cccc(Cl)c3)n2)cc1 [Example H2.3.3, 2-(2,6-dichloro-4-[2-hydroxyethoxy]phenyl)-4-(3-chlorophenyl)-5-(2-[4-(N-(2-hydroxyethyl)-ulfamoyl)phenylamino]pyrimidin-4-yl)-N—H-imidazole] | 6.7 | –
CN(C)c1ccc(Nc2nccc(-c3[nH]c(-c4c(Cl)cccc4Cl)nc3-c3cccc(Cl)c3)n2)cc1 [Example H2.1.3, 2-(2,6-dichlorophenyl)-4-(3-chlorophenyl)-5-(2-[4-dimethylaminophenyl-amino]pyrimidin-4-yl)-N—H-imidazole] | 31 | 167
Clc1cccc(-c2nc(-c3c(Cl)cccc3Cl)[nH]c2-c2ccnc(Nc3ccc(N4CCOCC4)cc3)n2)c1 [Example H2.1.4, 2-(2,6-dichlorophenyl)-4-(3-chlorophenyl)-5-(2-[4-morpholinophenyl-amino]pyrimidin-4-yl)-N—H-imidazole] | 23.3 | 84
C[S+]([O-])c1ccc(Nc2nccc(-c3[nH]c(-c4c(Cl)cc(OCCO)cc4Cl)nc3-c3cccc(Cl)c3)n2)cc1 (stereo not drawn) [Example H2.3.2, 2-(2,6-dichloro-4-[2-hydroxyethoxy]phenyl)-4-(3-chlorophenyl)-5-(2-[4-methylsufinyl-phenylamino]pyrimidin-4-yl)-N—H-imidazole] | 331 | –
C#Cc1cccc(-c2nc(-c3c(Cl)cccc3Cl)[nH]c2-c2ccnc(Nc3ccc(OCCO)cc3)n2)c1 [Example H4.1.2, 2-(2,6-dichlorophenyl)-4-(3-ethynylphenyl)-5-(2-[4-(2-hydroxyethoxy)-phenylamino]pyrimidin-4-yl)-N—H-imidazole] | 33.3 | 90

Continued, values first:

IC50 [1] [nM] | IC50 [2] [nM] | SMILES
24.4 | 609 | CCN(CC)CCOc1ccc(Nc2nccc(-c3[nH]c(-c4c(Cl)cccc4Cl)nc3-c3ccc(Cl)cc3)n2)cc1 [Example H3.1.1, 2-(2,6-dichlorophenyl)-4-(4-chlorophenyl)-5-(2-[4-(2-diethylaminoethoxy)-phenylamino]pyrimidin-4-yl)-N—H-imidazole]
1.6 | – | CCN(CC)CCOc1ccc(Nc2nccc(-c3[nH]c(-c4c(Cl)cc(OCCO)cc4Cl)nc3-c3cccc(Cl)c3)n2)cc1 [Example H2.3.1, 2-(2,6-dichloro-4-[2-hydroxyethoxy]phenyl)-4-(3-chlorophenyl)-5-(2-[4-(2-diethylaminoethoxy)-phenylamino]pyrimidin-4-yl)-N—H-imidazole]
0.5 | 4 | CCN(CC)CCOc1ccc(Nc2nccc(-c3nc(-c4c(Cl)cc(CO)cc4Cl)[nH]c3-c3cccc(Cl)c3)n2)cc1 [Example H2.2.1, 2-(2,6-dichloro-4-hydroxymethylphenyl)-4-(3-chlorophenyl)-5-(2-[4-(2-diethylaminoethoxy)-phenylamino]pyrimidin-4-yl)-N—H-imidazole]
6.7 | 5 | CCN(CC)CCOc1ccc(Nc2nccc(-c3[nH]c(-c4c(Cl)cccc4Cl)nc3-c3cccc(Br)c3)n2)cc1 [Example H1.1, 2-(2,6-dichlorophenyl)-4-(3-bromophenyl)-5-(2-[4-(2-diethylamino-ethoxy)phenylamino]pyrimidin-4-yl)-N—H-imidazole]
